Results taken from patent publication US20140213446A1, “HERBICIDAL COMPOSITIONS AND METHODS USING COMBINATIONS OF 4-AMINO-3-CHLORO-6-(4-CHLORO-2-FLUORO-3-METHOXYPHENYL)PYRIDINE-2-CARBOXYLIC ACID OR A DERIVATIVE THEREOF AND AN ARYLOXYPHENOXY PROPIONATE ACCASE INHIBITOR HERBICIDE” (DOW AGROSCIENCES LLC, priority 2013, published 2014).

Experiments:
Assay in all cases: Postemergence foliar-applied herbicidal mixtures, weeds common to row crops
Format in all cases: in vivo
[1] = system: SORHA Sorghum halepense (L.) Pers. (Johnsongrass); settings: Quizalofop-P-ethyl 7.125 g ae/ha
Text: (§1) Evaluation of Postemergence Foliar-Applied Herbicidal Mixtures for Control of Weeds Common to Row Crops such as Corn and Soybeans. Seeds or nutlets of the desired test plant species were planted in a soil matrix prepared by mixing a loam or sandy loam soil (e.g., 28.6 percent silt, 18.8 percent clay, and 52.6 percent sand, with a pH of about 5.8 and an organic matter content of about 1.8 percent) and calcareous grit in an 80 to 20 ratio. The soil matrix was contained in plastic pots with a surface area of 84.6 cm^2 and a volume of 560 cubic centimeters (cm^3). When required to ensure good germination and healthy plants, a fungicide treatment and/or other chemical or physical treatment was applied. The plants were grown for 7-31 d in a greenhouse with an approximate 15 h photoperiod which was maintained at about 23-29° C. during the day and 22-28° C. during the night. Nutrients (Peters Excel® 15-5-15 5-Ca 2-Mg) and water were added on a regular basis and supplemental lighting was provided with overhead metal halide 1000-Watt lamps as necessary. The plants were employed for testing when they reached the first, second, or third true leaf stage.
(§2) Treatment requirements were calculated based upon the rates being tested, the concentration of active ingredient or acid equivalent in the formulation, and a 12 mL application volume at a rate of 187 L/ha.
(§3) Treatments consisted of the potassium (K^+) salt of 4-amino-3-chloro-6-(4-chloro-2-fluoro-3-methoxyphenyl)-pyridine-2-carboxylic acid (Cmpd 4) formulated as a soluble liquid (SL), the propargyl ester of 4-amino-3-chloro-6-(4-chloro-2-fluoro-3-methoxyphenyl)-pyridine-2-carboxylic acid (Cmpd 2) as technical grade material, or the benzyl ester of 4-amino-3-chloro-6-(4-chloro-2-fluoro-3-methoxyphenyl)-pyridine-2-carboxylic acid (Cmpd 3) as technical grade material and quizalofop-p-ethyl (Assure® II) alone and in combination. Forms of compound of formula (I) and quizalofop-P-ethyl were applied on an acid equivalent basis.
(§4) For treatments comprised of formulated compounds, measured amounts of compounds were placed individually in 25 mL glass vials and diluted in a volume of 1.5% (v/v) Agri-Dex® crop oil concentrated to obtain 6× stock solutions. […] Application solutions were prepared by adding an appropriate amount of each stock solution (typically 2 mL) and diluted to the appropriate final concentrations with the addition of an appropriate amount of an aqueous mixture of 1.5% (v/v) crop oil concentrate and water so that the final spray solutions contained 1.25+/−0.05% (v/v) crop oil concentrate.
(§5) For treatments comprised of formulated and technical compounds, weighed amounts of the technical materials were placed individually in 25 mL glass vials and dissolved in a volume of 97:3 v/v acetone/DMSO to obtain 6× stock solutions, and measured amounts of the formulated compounds were placed individually in 25 mL glass vials and diluted in a volume of 1.5% (v/v) crop oil concentrate or water to obtain 6× stock solutions. […] Application solutions were prepared by adding an appropriate amount of each stock solution (e.g., 2 mL) and diluted to the appropriate final concentrations with the addition of an appropriate amount of an aqueous mixture of 1.5% (v/v) crop oil concentrate and water so that the final spray solutions contained 1.25% (v/v) crop oil concentrate. When required, additional water and/or 97:3 v/v acetone/DMSO can be added to individual application solutions so that the final acetone and DMSO concentrations of the application solutions being compared are 16.2% and 0.5%, respectively.
(§6) All stock solutions and applications solutions were visually inspected for compound compatibility prior to application. Compound requirements are based upon a 12 mL application volume at a rate of 187 liters per hectare (L/ha). […]

[2] = system: DIGSA Digitaria sanguinalis (L.) Scop. (large crabgrass); settings: Quizalofop-P-ethyl 3.56 g ae/ha
Text: as §1, §2, §3, §4, §5, §6

[3] = system: AVEFA Avena fatua L. (wild oat)
Text: as §1, §2, §3, §4, §5, §6

[4] = system: LOLMU Lolium multiflorum Lam. (Italian ryegrass); settings: Quizalofop-P-ethyl 3.56 g ae/ha
Text: as §1, §2, §3, §4, §5, §6

[5] = system: OEOBI Oenothera biennis (evening primrose)
Text: as §1, §2, §3, §4, §5, §6

[6] = Quizalofop-P-ethyl 7.125 g ae/ha
[7] = Quizalofop-P-ethyl 14.25 g ae/ha

Which results are given for `CCOC(=O)[C@@H](C)Oc1ccc(Oc2cnc3cc(Cl)ccc3n2)cc1` [Quizalofop-P-ethyl, quizalofop-P-ethyl]?
Percent (%) injury rated visually 14 DAA Obs [1]: 50%; Percent (%) injury rated visually 14 DAA Obs [2]: 20%; Percent (%) injury rated visually 14 DAA Obs ([3]; Quizalofop-P-ethyl 3.56 g ae/ha): 15%; Percent (%) injury rated visually 14 DAA Obs [3, 6]: 15%; Percent (%) injury rated visually 14 DAA Obs [3, 7]: 40%; Percent (%) injury rated visually 14 DAA Obs [4]: 0%; Percent (%) injury rated visually 14 DAA Obs [5, 6]: 0%; Percent (%) injury rated visually 14 DAA Obs [5, 7]: 0%; Percent (%) injury rated visually 14 DAA Obs ([5]; Quizalofop-P-ethyl 28.5 g ae/ha): 0%
